Test results: patent US9388160B2, “Quinazoline derivatives as kinases inhibitors and methods of use thereof” (TELIGENE LTD., priority 2011, dated 2016)

What was measured:
A431 Cell line = test: Cell proliferation assay (MTT), A431; type: cell-based; settings: Homo sapiens, A-431, 72 hours treatment
Description: (§1) A representative number of compounds were assayed against different cancer cell lines such as NCI-H-1975 or A431 using the cell proliferation assays:
(§2) Cell Proliferation Assays: • 1. 5×10^3 cells per well in 100 μl of medium were seeded in 96-well plate, here the medium contained 5% FBS • 2. 24 hours later, 100 μl fresh medium was added with various concentrations of compounds into each well, while the medium here was free of FBS • 3. After the cells were treated with compounds for 72 hours, 20 μl MTT (5 mg/ml) was added into each well, and then the assay plate was incubated at 37° C. for 4 more hours. • 4. The assay plate was centrifuged at 800 g for 10 min. The medium was aspirated, 150 μl DMSO was added into each well. The plate was gently shaked for 10 min. • 5. The absorbance at 570 nm was measured on the plate reader. • 6. IR %=(WC−WT)/WC*100%.

TA1535 = test: Ames Assay, plate incorporation, strain TA1535; settings: with S9 mixture
Description: (§3) A representative number of compounds were tested in Ames Assay for assess the mutagenic potential.
(§4) Preparations of culture media/plates and reagents: 0.5 mmol L-histidine-0.5 mmol/L biotin solution; 20% glucose solution; nutrient broth; KCl salt solution (1.65 M KCl+0.4 M MgCl2); 0.2 M phosphate buffer (pH 7.4); co-factors (NADP; glucose 6-phosphate) for S9 mixture; top agar medium; minimal agar medium (Vogel-Bonner medium E); bottom agar medium.
(§5) Preparation of the enriched culture: Take nutrient broth 5 mL, added it to sterile tubes with the cryopreserved strain culture TA1535 and TA1537. After inoculation in nutrient broth, the cultures were kept at 37° C. with oscillation of 100 times/min for 10 hours. The strain cultures should have about 1˜2×10^9 viable cells per milliliters.
(§6) Preparation of 10 ml S9 mixture: Co-factor mixture 9 mL by glucose 6-phosphate 42.3 mg, […] 14.2 mg, 6-phosphate dehydrogenase (3 unit/μl) 10 μl plus riboflavin (9.6 mg dissolved in 700 μL water), and then mixed with 1 ml of the induced rat S9.
(§7) Plate incorporation method: In the experiment, place 2 ml of the top agar medium containing 0.5 mmol/L histidine-0.5 mmol/L biotin into the test tubes kept in 45° C. water bath. Into a 1.5 ml sterile Eppendorf tube, it was added 0.1 ml of the bacterial strain in the enriched broth, 0.1 ml of the test compound solution and 0.5 ml of the S9 mixture, thoroughly mixed and incubated for 30 minutes at 37° C. with shaker speed at 150 rpm/min. The liquid mixture in the Eppendorf tube was added to the top agar medium. After mixing it was poured rapidly into the plates with bottom agar plate, turning the plates to allow uniform distribution. Initially placed horizontally for condensation and then placed invertly for 48 hours at 37° C. Count and record the number of revertant colonies per dish.
(§8) Experiment controls: In addition to the set of doses (3.3, 8.3, 33.3 and 66.6 μM) for the test compounds, here are the controls: blank control, sterile control, solvent control, positive mutagen control (2-aminoanthracene at 10 μg/dish).

TA1535 and TA1537 = test: Ames Assay, overall mutagenic potential; settings: TA1535 and TA1537, with S9 mixture, 3.3-66.6 μM
Description: as §3, §4, §5, §6
Plate incorporation method: In the experiment, place 2 ml of the top agar medium containing 0.5 mmol/L histidine-0.5 mmol/L biotin into the test tubes kept in 45° C. water bath. […]

TA1537 = test: Ames Assay, plate incorporation, strain TA1537; settings: with S9 mixture
Description: as §3, §4, §5, §6, §7, §8

SK-Br-3 Cell line = test: Cell proliferation assay (MTT), SK-Br-3; type: cell-based; settings: Homo sapiens, 72 hours treatment
Description: as §1, §2

[1] = system: NCI-H-1975 cell line xenograft; test: In vivo subcutaneous NCI-H-1975 cell line xenograft model in nude mice; design: species or system Balb/c nude mice
Excerpt: A representative protocol for the in vivo experiment is as followed to establish the subcutaneous NCI-H-1975 cell line xenograft model in nude mice and to evaluate the in vivo therapeutic efficacy of the compounds: Animals: Male Balb/c nude mice (6˜8 weeks old) were obtained from SLAC Laboratory Animal, Shanghai, China. Animals were maintained under SPF conditions in sterile filter top cages and housed on HEPA-filtered ventilated racks. Animals received sterile rodent chow and water ad libitum. Cell line: NCI-H-1975 cell line, S.c. Xenograft Models in Athymic Mice: Cells for implantation into athymic mice were harvested and pelleted by centrifugation at 1200 r/min for 5 min. Cells were washed once and resuspended in sterile PBS buffer with 5×10^6 in 200 μl. Then cells were implanted s.c. into the right scapular region of each mouse and allowed to grow to 200-300 mm^3 before the administration of compound. Preparation of the Dose Formulation: each compound was suspensioned in 0.5% CMC-Na. Randomization: When tumor volumes approach 200-300 mm^3, the mice will be randomized into 5 groups according to the tumor volume. The day will be denoted as D1 and the treatments will be started at this day. Administered: Dose will be administered with oral gavage needle once daily for number of days. Treatment of compounds administered in 0.5% CMC—Na by p.o. gavage was initiated when tumors were 200˜300 mm^3 in volume. Observations: After inoculation, the animals will be checked daily for morbidity and mortality. At the time of routine monitoring, the animals will be checked for any effects of tumor growth and treatments on normal behavior such as mobility, body weight gain/loss (body weights will be measured twice weekly or every other day), eye/hair matting and any other abnormal effect. Death and observed clinical signs will be recorded on the basis of the numbers of animals within each subset. Tumor Size Measurements: Tumor volume was determined by measurement with electronic vernier calipers every 3 days and tumor volume was calculated as the product of its length×width^2×0.5. Effect studies: Tumor volume was expressed on indicated days as the mean tumor volume±SD. Percentage (%) inhibition values were measured for drug-treated mice compared with vehicle-treated mice and are calculated as follows: Tumor growth inhibition(TGI, %)=100−[MTV treated/MTV control]×100. Significant differences between the treated versus the control groups (p<0.05) were determined using t test. At study endpoint, after blood collection, mice were practicsed euthanasia by cervical dislocation, the tumor tissue was collected first, then abdominal cavity was cut open, liver and spleen were excised, then weight after the gallblader was removed respectively. Organ weight and Organ/body weight ratios between the treated versus the control groups were compared. Ratios was calculated as follows: Ratios=Organ weight/(body weight-tumor weight). Both organ weight and Organ/body weight ratios were also expressed as mean±SD, and significant differences between the treated versus the control groups (p<0.05) were determined using t test.
The following Table D lists compounds representative of the invention and their activity in subcutaneous NCI-H-1975 cell line xenograft model in nude mice described above. Compound 11 and Dacomitinib were dosed at 15 mg/kg by oral gavage once daily for number of days. Tumor growth inhibition (TGI, %) was calculated.

EGFR(T790M/L858R) = EGFR(T790M/L858R) (Homo sapiens (Human), UniProt P00533, L858R/T790M); test: In vitro EGFR(T790M/L858R) kinase activity inhibition assay (Kinase-Glo Plus luminescence); type: biochemical; settings: 10 μM ATP, poly(Glu,Tyr) substrate
Chain of EGFR(T790M/L858R) (P00533 25-1210 T790M/L858R): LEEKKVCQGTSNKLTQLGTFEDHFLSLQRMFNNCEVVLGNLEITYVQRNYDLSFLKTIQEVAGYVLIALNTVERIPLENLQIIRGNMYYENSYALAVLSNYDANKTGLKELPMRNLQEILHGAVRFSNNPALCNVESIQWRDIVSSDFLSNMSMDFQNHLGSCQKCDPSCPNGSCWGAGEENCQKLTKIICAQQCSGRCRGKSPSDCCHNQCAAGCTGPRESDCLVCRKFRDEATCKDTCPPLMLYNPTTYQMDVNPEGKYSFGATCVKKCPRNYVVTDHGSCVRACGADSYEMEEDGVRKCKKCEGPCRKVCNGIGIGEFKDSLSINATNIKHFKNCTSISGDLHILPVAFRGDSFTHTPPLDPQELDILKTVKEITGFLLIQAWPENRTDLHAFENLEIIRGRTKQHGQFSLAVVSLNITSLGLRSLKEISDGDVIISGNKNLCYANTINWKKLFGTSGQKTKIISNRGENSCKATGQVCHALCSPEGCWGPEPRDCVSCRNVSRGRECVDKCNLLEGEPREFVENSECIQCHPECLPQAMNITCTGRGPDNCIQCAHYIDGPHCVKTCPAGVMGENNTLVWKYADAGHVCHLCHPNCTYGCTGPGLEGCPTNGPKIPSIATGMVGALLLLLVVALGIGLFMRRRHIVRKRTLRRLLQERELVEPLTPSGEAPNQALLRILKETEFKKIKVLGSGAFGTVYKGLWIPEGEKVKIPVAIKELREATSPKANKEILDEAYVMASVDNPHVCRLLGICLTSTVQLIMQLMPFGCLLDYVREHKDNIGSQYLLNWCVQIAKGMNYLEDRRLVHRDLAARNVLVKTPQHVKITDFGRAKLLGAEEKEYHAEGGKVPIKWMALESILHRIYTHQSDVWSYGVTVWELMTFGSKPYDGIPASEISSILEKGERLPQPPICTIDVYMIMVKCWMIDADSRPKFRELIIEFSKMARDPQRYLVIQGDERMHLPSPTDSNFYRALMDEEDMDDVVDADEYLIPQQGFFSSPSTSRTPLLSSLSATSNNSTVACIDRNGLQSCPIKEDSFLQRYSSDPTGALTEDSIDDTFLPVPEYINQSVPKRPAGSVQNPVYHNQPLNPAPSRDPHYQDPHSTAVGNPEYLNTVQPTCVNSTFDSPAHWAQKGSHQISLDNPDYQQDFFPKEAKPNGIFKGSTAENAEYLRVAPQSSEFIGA
Description: (§9) • 1. […] It measures kinase activity by quantitating the amount of ATP remaining in solution following a kinase reaction. The luminescent signal from the assay is correlated with the amount of ATP present and is inversely correlated with the amount of kinase activity. […] The luminescence data were analyzed using the computer software, Graphpad Prism. […] The values of % activity versus a series of compound concentrations were then plotted using non-linear regression analysis of Sigmoidal dose-response curve generated with the equation Y=B+(T−B)/1+10^((LogEC50−X)×Hill Slope), where Y=percent activity, B=minimum percent activity, T=maximum percent activity, X=logarithm of compound and Hill Slope=slope factor or Hill coefficient. The IC50 value was determined by the concentration causing a half-maximal percent activity.

EGFR = EGFR (Homo sapiens (Human), UniProt P00533); test: In vitro EGFR kinase activity inhibition assay (Kinase-Glo Plus luminescence); type: biochemical; settings: 10 μM ATP, poly(Glu,Tyr) substrate
Chain of EGFR (P00533 25-1210): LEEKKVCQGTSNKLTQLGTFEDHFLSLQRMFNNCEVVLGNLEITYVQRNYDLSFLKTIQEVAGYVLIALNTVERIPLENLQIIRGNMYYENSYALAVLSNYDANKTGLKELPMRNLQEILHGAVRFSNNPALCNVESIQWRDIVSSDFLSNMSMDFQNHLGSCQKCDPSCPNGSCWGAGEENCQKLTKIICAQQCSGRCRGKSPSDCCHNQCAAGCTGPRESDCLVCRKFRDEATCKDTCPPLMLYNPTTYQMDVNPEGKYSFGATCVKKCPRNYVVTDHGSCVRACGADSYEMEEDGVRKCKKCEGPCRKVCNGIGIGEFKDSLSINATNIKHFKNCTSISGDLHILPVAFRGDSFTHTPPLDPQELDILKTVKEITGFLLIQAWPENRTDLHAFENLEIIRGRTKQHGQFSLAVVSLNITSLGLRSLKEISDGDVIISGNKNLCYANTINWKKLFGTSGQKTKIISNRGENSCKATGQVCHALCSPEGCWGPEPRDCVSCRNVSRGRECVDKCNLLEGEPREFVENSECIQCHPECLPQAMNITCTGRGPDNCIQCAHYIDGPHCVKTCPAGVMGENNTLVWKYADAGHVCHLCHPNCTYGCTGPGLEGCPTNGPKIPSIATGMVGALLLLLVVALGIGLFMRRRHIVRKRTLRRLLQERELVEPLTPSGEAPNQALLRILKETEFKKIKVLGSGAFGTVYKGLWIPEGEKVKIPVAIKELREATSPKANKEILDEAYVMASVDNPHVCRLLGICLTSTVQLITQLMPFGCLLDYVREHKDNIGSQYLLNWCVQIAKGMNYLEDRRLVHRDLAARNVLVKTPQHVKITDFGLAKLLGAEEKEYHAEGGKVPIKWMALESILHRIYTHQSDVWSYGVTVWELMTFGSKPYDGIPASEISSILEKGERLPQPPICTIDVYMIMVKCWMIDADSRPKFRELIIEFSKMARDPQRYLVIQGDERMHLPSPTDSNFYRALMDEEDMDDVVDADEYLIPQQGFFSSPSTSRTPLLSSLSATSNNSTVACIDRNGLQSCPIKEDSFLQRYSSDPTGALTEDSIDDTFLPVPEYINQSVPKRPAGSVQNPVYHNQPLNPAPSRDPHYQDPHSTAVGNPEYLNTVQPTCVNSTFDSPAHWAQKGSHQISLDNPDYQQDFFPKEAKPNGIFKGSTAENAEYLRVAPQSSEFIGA
Description: as §9

[2] = Day 3, 15 mg/kg oral gavage once daily
[3] = Day 7, 15 mg/kg oral gavage once daily

C#Cc1cccc(Nc2ncnc3cc(OCC)c(NC(=O)/C=C/CN4CCCCC4)cc23)c1 [Compound 11, (E)-N-(7-ethoxy-4-((3-ethynylphenyl)amino)quinazolin-6-yl)-4-(piperidin-1-yl)but-2-enamide]
IC50 (A431 Cell line): 2950 nM | TA1535 Colony number (TA1535; 3.33 uM): 10 | TA1535 Colony number (TA1535; 8.33 uM): 13 | TA1535 Colony number (TA1535; 33.3 uM): 18 | TA1535 Colony number (TA1535; 66.6 uM): 12 | Ames Assay result (mutagenic potential) (TA1535 and TA1537): negative | TA1537 Colony number (TA1537; 3.33 uM): 14 | TA1537 Colony number (TA1537; 8.33 uM): 12 | TA1537 Colony number (TA1537; 33.3 uM): 23 | TA1537 Colony number (TA1537; 66.6 uM): 22 | IC50 (SK-Br-3 Cell line): 85.2 nM | Tumor growth inhibition compared with Dacomitinib ([1]; 15 mg/kg oral gavage once daily): significant better tumor growth inhibition compared with Dacomitinib | Tumor growth inhibition (TGI, %) [1, 2]: 30.11% | Tumor growth inhibition (TGI, %) [1, 3]: 83.25% | IC50 (EGFR(T790M/L858R)): 22 nM | IC50 (EGFR): 1.7 nM

Nc1ccc2cc3ccccc3cc2c1 [2-aminoanthracene, reference compound]
TA1535 Colony number (TA1535; 17.27 uM (10 μg/dish)): 205 | TA1537 Colony number (TA1537; 17.27 uM (10 μg/dish)): 260

C#Cc1cccc(Nc2ncnc3cc(OC)c(NC(=O)/C=C/CN4CCCCC4)cc23)c1 [Compound 12, (E)-N-(4-((3-ethynylphenyl)amino)-7-methoxyquinazolin-6-yl)-4-(piperidin-1-yl)but-2-enamide]
IC50 (A431 Cell line): 4900 nM | TA1535 Colony number (TA1535; 3.33 uM): 17 | TA1535 Colony number (TA1535; 8.33 uM): 9 | TA1535 Colony number (TA1535; 33.3 uM): 17 | TA1535 Colony number (TA1535; 66.6 uM): 9 | Ames Assay result (mutagenic potential) (TA1535 and TA1537): positive | TA1537 Colony number (TA1537; 3.33 uM): 8 | TA1537 Colony number (TA1537; 8.33 uM): 22 | TA1537 Colony number (TA1537; 33.3 uM): 47 | TA1537 Colony number (TA1537; 66.6 uM): 66 | IC50 (SK-Br-3 Cell line): 116 nM | IC50 (EGFR(T790M/L858R)): < 100 nM | IC50 (EGFR): < 10 nM

COc1cc2ncnc(Nc3ccc(F)c(Cl)c3)c2cc1NC(=O)/C=C/CN1CCCCC1 [Dacomitinib, reference compound]
IC50 (A431 Cell line): 19500 nM | IC50 (SK-Br-3 Cell line): 225 nM | Tumor growth inhibition (TGI, %) [1, 2]: 19.86% | Tumor growth inhibition (TGI, %) [1, 3]: 75.36%
